Experiments:
Type in all cases: biochemical
[1] = target: Human lung tryptase; experiment: Ki determination, human lung tryptase (Tosyl-Gly-Pro-Arg-pNA substrate); details: 50 mM Tris-HCl pH 8.0, 37° C., 1 nM tryptase, 320 μM GPR-pNA; read-out: Experimentally Determined Ki, Tryptase
Protocol: (§1) Protease inhibition was assayed according to published procedures with minor modifications using various proteases and specific chromogenic peptide p-nitroanilide substrates. Assays were performed in Costar ultra-low cluster 96-well microtiter plate (Costar Corning Corp., Cambridge Mass.). Each protease was incubated with various concentrations of the test compound for 15 min. at 37° C. or as otherwise indicated, in specific assay buffer, and the residual activity was then measured by addition of the substrate. p-Nitroaniline produced by the proteolysis was determined by measuring the change in absorbance at 405 nm on a SpectraMAX 340 plate reader (Molecular devices, Sunnyvale, Calif.).
(§2) 1. The inhibition constant, Ki is calculated from individual data points using the equation for a tight-binding inhibitor (See Beith, "Proteinase Inhibitors-Proceedings of 2nd Int. Res. Conference", Fritz, et al. eds, New York, p.4463-4469 (1974)):
(§3) vi /vo [((Ki '+[I]+[E]o)^2 -4 [I]o
(§4) [E]o)^1/2 (Ki '+[I]o -[E]o)]/2[E]o
(§5) where Ki ' is apparent inhibition constant; vi and vo are the inhibited and uninhibited rates, respectively; [I]o and [E]o are the total concentrations of inhibitor and enzyme, respectively.
(§6) [note: [E]o is determined by active site titration of enzyme]
(§7) The Ki values are obtained by correcting Ki ' values for the effect of substrate concentration according to: [formula]
(§8) 2. Other inhibition data (Ki >>[E]o), the Ki is calculated from using the equations for a competitive inhibitor: [formula]
Human lung tryptase purchased from Cortex Biochem (San Leandro, Calif.) was purified further on a Superdex 200 gel-filtration column. The active-site concentration of the enzyme was determined by spectrophotometric titration with 4-nitrophenyl 4'-guanidinobenzoate according to Schwartz, et al., J. Immunol., 114, 2304-2311 (1990). Tryptase activity was measured according to the procedures of Schwartz, et al., J. Biol. Chem., 261, 7372-7379 (1986) (See also, Schwartz, L. B., Methods In Enzymology, 244, 88 (1994)) with minor modifications, using Tosyl-Gly-Pro-Arg-p-nitroanilide ("GPR-pNA", Sigma Chemical Co., St. Louis, Mo., T-1637) as a chromogenic substrate. The reaction was performed in 50 mM Tris-HCl, pH 8.0, containing 150 mM NaCl and 0.02% Triton X-100 at 37° C. in Costar ultra-low cluster 96-well microtiter plates (Costar Corning Corp., Cambridge, Mass.). The amount of pNA produced by tryptase was determined by measuring the change in absorbance at 405 nm on a SpectraMAX 340 plate reader (Molecular devices, Sunnyvale, Calif.). The Km for the substrate was determined by Lineweaver-Burk analysis from initial velocities of substrate hydrolysis. The inhibition assay was carried out in a total volume of 200 μL. Tryptase (30 μL- final concentration 1 nM) was incubated with various concentrations of sample compound (50 μL) to be tested in the above assay buffer for 5 min. The reaction was started by the addition of substrate GPR-pNA (40 μL-final concentration 320 μM), and the residual activity was measured after 15 min. of incubation. The inhibition constant, Ki, was determined by fitting the inhibition data to a two-site competitive binding equation using data analysis program GraphPad PRISM (GraphPad Software, Inc., San Diego, Calif.).
(§9) The inhibition constant (Ki) of the test compounds against each proteolytic enzyme was determined according to Zitnik et al., Biochem. Biophys. Res. Commun. 232, 687-697 (1997)).

[2] = target: r-tissue kallikrein (Homo sapiens, UniProt P06870); experiment: Ki determination, r-tissue kallikrein (DL-Val-Leu-Arg-pNA); details: 50 mM Tris-HCl, pH 7.8, 200 mM NaCl, 0.05% BSA; read-out: Experimentally Determined Ki, Tissue Kallikrein
Protocol: as §1, §2, §3, §4, §5, §6, §7, §8
I. Human Plasma and r-Tissue Kallikrein
Human plasma and r-tissue kallikrein activity were determined in 50 mM Tris-HCl, pH 7.8, 200 mM NaCl, 0.05% BSA by using H-D-Prolyl-Phe-Arg-pNA and DL-Val-Leu-Arg-pNA, respectively (See Lottenberg, et al., Meth. Enzymol. 80, 341-361 (1981)).
as §9

[3] = target: T1, Human plasma factor Xa (Homo sapiens, UniProt P00742); experiment: Ki determination, human plasma factor Xa (N-Benzoyl-Ile-Glu-Gly-Arg-pNA); details: 50 mM Tris-HCl, pH 7.8, 200 mM NaCl, 0.05% BSA; read-out: Experimentally Determined Ki, Factor Xa
T1 construct: from tissue; host or cells: human plasma
Protocol: as §1, §2, §3, §4, §5, §6, §7, §8
Human plasma factor Xa activity was determined by using N-Benzoyl-Ile-Glu-Gly-Arg-pNA in 50 mM Tris-HCl, pH 7.8, 200 mM NaCl, 0.05% BSA (See Lottenberg, et al. Meth. Enzymol. 80, 341-361 (1981)).
as §9

[4] = target: T2, Human Neutrophil elastase (Homo sapiens, UniProt P08246); experiment: Ki determination, human neutrophil elastase (pyroGlu-Pro-Val-pNA); details: 100 mM Tris-HCl, pH 8.3, 0.96 M NaCl, 1% BSA; read-out: Experimentally Determined Ki, Elastase
T2 construct: from tissue; host or cells: human neutrophils
T2 sequence (P08246 30-267): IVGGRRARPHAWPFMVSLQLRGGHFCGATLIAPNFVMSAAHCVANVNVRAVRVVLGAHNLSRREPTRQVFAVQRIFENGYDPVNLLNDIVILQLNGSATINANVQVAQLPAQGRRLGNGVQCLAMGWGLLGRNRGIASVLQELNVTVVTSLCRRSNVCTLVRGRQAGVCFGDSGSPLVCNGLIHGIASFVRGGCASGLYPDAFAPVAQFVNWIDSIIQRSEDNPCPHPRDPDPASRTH
Protocol: as §1, §2, §3, §4, §5, §6, §7, §8
Human Neutrophil elastase activity was determined by using pyroGlu-Pro-Val-pNA in 100 mM Tris-HCl, pH 8.3, 0.96 M NaCl, 1% BSA (See Kramps, et al. Scand. J. Clin. Lab. Invest. 43, 427-432 (1983)).
as §9

[5] = target: T3, Human plasma plasmin (Homo sapiens, UniProt P00747); experiment: Ki determination, human plasma plasmin (Tosyl-Gly-Pro-Lys-pNA); details: 100 mM Tris-HCl, pH 7.4, 100 mM NaCl, 0.05% Triton X-100; read-out: Experimentally Determined Ki, Plasmin
T3 construct: from tissue; host or cells: human plasma
Protocol: as §1, §2, §3, §4, §5, §6, §7, §8
Human plasma plasmin activity was determined by using Tosyl-Gly-Pro-Lys-pNAin 100 mM Tris-HCl, pH 7.4, 100 mM NaCl, 0.05% Triton X-100 (See Lottenberg, et al., Meth. Enzymol. 80, 341-361 (1981)).
as §9

T1 sequence (P00742 235-488 limits assumed): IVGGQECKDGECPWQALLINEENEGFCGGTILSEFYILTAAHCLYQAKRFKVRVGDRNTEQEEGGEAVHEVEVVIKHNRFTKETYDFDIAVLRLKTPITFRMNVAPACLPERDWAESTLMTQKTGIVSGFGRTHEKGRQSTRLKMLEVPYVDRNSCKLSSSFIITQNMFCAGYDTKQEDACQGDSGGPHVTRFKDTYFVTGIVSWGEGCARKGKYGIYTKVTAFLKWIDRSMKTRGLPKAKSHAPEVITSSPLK
T1 sequence (P00742 41-179 partner limits assumed): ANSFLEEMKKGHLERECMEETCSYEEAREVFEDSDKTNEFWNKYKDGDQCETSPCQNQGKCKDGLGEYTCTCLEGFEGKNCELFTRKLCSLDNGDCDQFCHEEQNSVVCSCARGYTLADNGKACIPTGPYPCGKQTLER
Chain of r-tissue kallikrein (P06870 25-262): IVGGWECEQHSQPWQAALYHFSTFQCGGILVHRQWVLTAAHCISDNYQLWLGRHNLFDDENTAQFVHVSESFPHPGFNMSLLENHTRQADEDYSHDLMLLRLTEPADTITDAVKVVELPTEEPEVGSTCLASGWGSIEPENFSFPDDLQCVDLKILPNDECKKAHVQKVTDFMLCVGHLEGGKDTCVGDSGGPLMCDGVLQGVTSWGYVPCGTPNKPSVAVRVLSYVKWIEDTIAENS
T3 sequence (P00747 581-810 limits assumed): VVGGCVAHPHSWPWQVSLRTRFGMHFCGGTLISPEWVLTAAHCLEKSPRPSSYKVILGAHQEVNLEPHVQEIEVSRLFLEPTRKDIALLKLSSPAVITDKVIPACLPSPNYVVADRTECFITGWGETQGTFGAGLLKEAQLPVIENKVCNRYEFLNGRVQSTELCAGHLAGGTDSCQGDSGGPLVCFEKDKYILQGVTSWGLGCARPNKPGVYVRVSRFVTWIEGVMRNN
T3 sequence (P00747 97-580 partner limits assumed): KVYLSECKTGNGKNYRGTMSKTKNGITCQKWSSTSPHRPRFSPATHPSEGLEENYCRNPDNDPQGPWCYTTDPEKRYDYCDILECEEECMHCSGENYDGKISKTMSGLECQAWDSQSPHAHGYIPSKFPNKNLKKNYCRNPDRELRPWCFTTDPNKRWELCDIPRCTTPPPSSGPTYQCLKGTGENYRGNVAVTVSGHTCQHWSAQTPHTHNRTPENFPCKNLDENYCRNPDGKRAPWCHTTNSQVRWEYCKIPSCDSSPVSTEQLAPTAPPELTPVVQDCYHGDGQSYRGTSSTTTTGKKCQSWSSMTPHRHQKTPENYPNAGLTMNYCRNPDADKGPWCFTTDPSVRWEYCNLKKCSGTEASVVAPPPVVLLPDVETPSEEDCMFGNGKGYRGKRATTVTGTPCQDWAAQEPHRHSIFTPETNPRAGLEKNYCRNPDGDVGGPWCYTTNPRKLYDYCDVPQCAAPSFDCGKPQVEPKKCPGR

With `N=C(N)c1ccc2sc(C(=O)NCc3ccc(OCCCOc4ccc(CNC(=O)c5cc6cc(C(=N)N)ccc6s5)cc4)cc3)cc2c1` [Example 117, 1,3-Bis-{4-[(5-carbamidoyl-2-benzthiophenyl-carbamido)-methyl]-phenoxy}-propane] the Ki [1] was 0.012 µM, the Ki [2] was greater than 100 µM and the Ki [3] was 59 µM. For the same compound, the Ki [4] was greater than 100 µM and the Ki [5] was 50 µM.

In the case of `N=C(N)c1cccc(C(=O)NCc2ccc(OCCCCOc3ccc(CNC(=O)c4cccc(C(=N)N)c4)cc3)cc2)c1` [Example 61, 1,4-Bis-{4-[(3-carbamimidoyl-benzenecarbonylamino)-methyl]-phenoxy}-butane], the Ki [1] is reported as 0.01 µM, the Ki [2] is reported as greater than 100 µM and the Ki [3] is reported as 1 µM. The Ki [4] was greater than 100 µM and the Ki [5] was 6 µM.

Compound `N=C(N)c1ccc(C(=O)NCc2ccc(OCCCOc3ccc(CNS(=O)(=O)c4cccc(C(=N)N)c4)cc3)cc2)cc1` [Example 86, 4-Carbamimidoyl-N-[4-(3-{4-[(3-carbamimidoyl-benzenesulfonylamino)-methyl]-phenoxy}-propoxy)-benzyl]-benzamide] has a Ki [1] of 0.003 µM, a Ki [2] greater than 100 µM and a Ki [3] of 10 µM. It also gave a Ki [4] greater than 100 µM and a Ki [5] of 0.34 µM.

In the case of `N=C(N)c1cccc(C(=O)NCc2ccc(OCCOc3ccc(CNC(=O)c4cccc(C(=N)N)c4)cc3)cc2)c1` [Example 65, 1,2-Bis-{4-[(3-carbamimidoyl-benzoylamino)-methyl]-phenoxy}-ethane], the Ki [1] is reported as 0.35 µM, the Ki [2] is reported as greater than 100 µM and the Ki [3] is reported as 2.6 µM. It also gave a Ki [4] greater than 100 µM and a Ki [5] of 46 µM.

Work on `N=C(N)c1ccc(C(=O)NCc2ccc(OCCCOc3ccc(CNC(=O)c4ccc(CN)cc4)cc3)cc2)cc1` [Example 87, N-[4-(3-{4-[(4-Aminomethyl-benzoylamino)-methyl]-phenoxy}-propoxy)-benzyl]-4-carbamimidoyl-benzamide] yielded a Ki [1] of 0.002 µM, a Ki [2] greater than 100 µM and a Ki [3] of 19 µM. For the same compound, the Ki [4] was greater than 100 µM and the Ki [5] was 7.6 µM.

Compound `N=C(N)c1ccc(C(=O)NCc2ccc(COCc3ccc(CNC(=O)c4ccc(C(=N)N)cc4)cc3)cc2)cc1` [Example 66, 1,3-Bis-{4-[(4-carbamimidoyl-benzenecarbonylamino)-methyl]-phenyl}-2-oxapropane] has a Ki [1] of 0.38 µM, a Ki [2] greater than 100 µM and a Ki [3] of 25.7 µM. The Ki [4] was greater than 100 µM and the Ki [5] was 10.1 µM.

For `N=C(N)c1ccc(C(=O)NCc2ccc(OCCCCCCCOc3ccc(CNC(=O)c4ccc(C(=N)N)cc4)cc3)cc2)cc1` [Example 58, 1,7-Bis-{4-[(4-carbamimidoyl-benzenecarbonylamino)-methyl]-phenoxy}-heptane], the Ki [1] was 0.001 µM, the Ki [2] was greater than 100 µM and the Ki [3] was 20 µM. It also gave a Ki [4] greater than 100 µM and a Ki [5] of 3.8 µM.

Compound `N=C(N)c1ccc(C(=O)NCc2ccc(OCCCOc3ccc(CNC(=O)c4cccc(C(=N)N)c4)cc3)cc2)cc1` [Example 85, 4-Carbamimidoyl-N-[4-(3-{4-[(3-carbamimidoyl-benzoylamino)-methyl]-phenoxy}-propoxy)-benzyl]-benzamide] has a Ki [1] of 0.003 µM, a Ki [2] greater than 100 µM and a Ki [3] of 2.2 µM. It also gave a Ki [4] greater than 100 µM and a Ki [5] of 5.2 µM.

For `N=C(N)c1cccc(S(=O)(=O)NCc2ccc(OCCCCCCCOc3ccc(CNS(=O)(=O)c4cccc(C(=N)N)c4)cc3)cc2)c1` [Example 45, 1,7-Bis-{4-[(3-carbamimidoyl-benzenesulfonylamino)-methyl]-phenoxy}-heptane], the Ki [1] was 0.8 µM, the Ki [2] was greater than 100 µM and the Ki [3] was 7.6 µM. For the same compound, the Ki [4] was greater than 100 µM and the Ki [5] was 10 µM.

Compound `N=C(N)c1ccc(C(=O)NCc2cccc(OCCCCCOc3cccc(CNC(=O)c4ccc(C(=N)N)cc4)c3)c2)cc1` [Example 76, 1,5-Bis-{3-[(4-carbamimidoyl-benzenecarbonylamino)-methyl]-phenoxy}-pentane] has a Ki [1] of 0.005 µM, a Ki [2] of 5 µM and a Ki [3] greater than 100 µM. For the same compound, the Ki [4] was greater than 100 µM and the Ki [5] was greater than 100 µM.

In the case of `N=C(N)c1ccc2[nH]c(CC(=O)NCc3ccc(OCCCCOc4ccc(CNC(=O)Cc5nc6cc(C(=N)N)ccc6[nH]5)cc4)cc3)nc2c1` [Example 109], the Ki [1] is reported as 0.008 µM, the Ki [2] is reported as greater than 100 µM and the Ki [3] is reported as 40 µM. For the same compound, the Ki [4] was greater than 100 µM and the Ki [5] was 0.11 µM.

Source: patent US6221914A, “Sulfonamide bridging compounds that inhibit tryptase activity” (Array Biopharma Inc., priority 1998, dated 2001)
